Results from patent publication US10758549B2, “Compositions of obeticholic acid and methods of use” (Intercept Pharmaceuticals, Inc., priority 2015, dated 2020).
In brackets after ≈: the same amount, converted by molar mass. Like-named read-outs stand apart in the source and are kept apart here.

How the values were obtained:
[1] = Equilibrium solubility of OCA in various buffers at 37° C.; type: physicochemical; conditions: for solubility: aqueous buffer, 37 °C, thermodynamic from solid
Protocol: Solubility Studies of OCA in Various Buffers. A study was performed to screen different media of various pH over the pH range 1.2-10.0, incorporating the physiological pH range (1.2-6.8) for immediate release tablets.

[2] = Example 10: clinical pharmacology / pharmacokinetics of OCA; type: in vivo, human; conditions: for Urinary excretion / dose excreted in feces: radiolabeled ([^14C]) obeticholic acid
Protocol: This example describes clinical pharmacology and dosing of obeticholic acid (OCA—including obeticholic acid compositions described herein). […] OCA can be supplied as an oral tablet containing obeticholic acid in a formulation as described herein.
Median Tmax for glyco-OCA and tauro-OCA is 10 hours.
Following an oral administration of 25 mg [^14C]-OCA, about 87% of the dose is excreted in feces through biliary secretion. Less than 3% of the dose is excreted in the urine with no detection of OCA.

[3] = Physiologic pharmacokinetic model of OCA (population PK fit and simulations); parameters: species or system human
Protocol: Plasma levels of OCA and its conjugates were measured in healthy subjects and cirrhotic patients with varying degrees of hepatic impairment. A physiologic pharmacokinetic model for OCA was developed to quantitatively describe the absorption, distribution, metabolism, and excretion of OCA in patients with and without hepatic impairment. The model was based on a published multi-compartment PK model for CDCA, and consisted of systemic, hepatobiliary, and intestinal systems. The model was used to simulate the pathophysiological abnormalities caused by cirrhosis including decreased hepatic uptake, portal-systemic shunting, decreased liver volume, and differences in amino acid conjugation.
This examples describes development of a physiologic PK model to quantitatively describe the absorption, distribution, metabolism, and excretion of OCA. In addition, the model was used to define the effects of hepatic impairment to predict the systemic and liver exposure to OCA in subjects with various degrees of liver impairment relative to healthy subjects with normal liver function. The model was developed based on 3 studies in healthy volunteers and 2 studies in patients with varying degrees of hepatic impairment […].
Data from was used to develop the model in healthy subjects (n=160) and then adjust for hepatic impairment (n=32) using the data from the above Examples. After development, the model was validated with data sourced from healthy subjects and cirrhotic patients.
The data used in model development included subject identifiers, time of dosing and sample collection, plasma drug concentrations (OCA, glyco-OCA, and tauro-OCA), dose amount, disease status (e.g., Child-Pugh score), and meal consumption information. Study participants received standardized meals at specified times during inpatient observation. Gallbladder contraction was assumed to last 90 minutes after the start of a meal. Drug concentrations below the limit of quantification (BLQ) were imputed to half of the lower limit of quantification (LLOQ). Observed and BLQ concentrations of OCA, glyco-OCA, and tauro-OCA associated with samples drawn prior to the first dose were excluded from the analyses.
A number of structural modifications were made to the base CDCA model in order to adapt it for use with OCA. For simplification, a single space was used to represent the gut (small and large intestines). Since OCA is an exogenous molecule, it was assumed that there was no endogenous synthesis and an absorption compartment with a first-order transfer coefficient (Ka) was included to represent the administration and absorption kinetics of an oral OCA dose. Based on steric hindrance by the 6-ethyl group of OCA, no bacterial 7-alpha dehydroxylation biotransformation activity (i.e., CDCA to lithocholic acid) was included in the model. Compartment volumes in the model were fixed to physiological values from the base CDCA model. The OCA model used the physiological flow values for blood, bile and gastrointestinal transit from the original physiologic PK model for CDCA, with the exception of flows from bile duct to gallbladder and from bile duct to gut. The physiological values from the base model led to poor predictions and may not be applicable due to the simplification of the enteral system into a unified gut compartment. The biotransformation and transport rates in the model, being dependent on chemical entity structure, were estimated by fitting the model to the plasma concentration time profiles of OCA, glyco-OCA, and tauro-OCA.
The PK model was first developed using the OCA, glyco-OCA, and tauro-OCA plasma concentration time profiles from healthy volunteers with normal hepatic function. Model parameter estimates related to healthy physiology were then held constant while the PK model was further developed using OCA, glyco-OCA, and tauro-OCA plasma concentration time profiles from patients with hepatic impairment (Child-Pugh scores A, B, and C). […]

[4] = target: T1, farnesoid X receptor (FXR) (Homo sapiens, UniProt Q96RI1); conditions: FXR agonism; cited from earlier work
T1 sequence (Q96RI1 1-486): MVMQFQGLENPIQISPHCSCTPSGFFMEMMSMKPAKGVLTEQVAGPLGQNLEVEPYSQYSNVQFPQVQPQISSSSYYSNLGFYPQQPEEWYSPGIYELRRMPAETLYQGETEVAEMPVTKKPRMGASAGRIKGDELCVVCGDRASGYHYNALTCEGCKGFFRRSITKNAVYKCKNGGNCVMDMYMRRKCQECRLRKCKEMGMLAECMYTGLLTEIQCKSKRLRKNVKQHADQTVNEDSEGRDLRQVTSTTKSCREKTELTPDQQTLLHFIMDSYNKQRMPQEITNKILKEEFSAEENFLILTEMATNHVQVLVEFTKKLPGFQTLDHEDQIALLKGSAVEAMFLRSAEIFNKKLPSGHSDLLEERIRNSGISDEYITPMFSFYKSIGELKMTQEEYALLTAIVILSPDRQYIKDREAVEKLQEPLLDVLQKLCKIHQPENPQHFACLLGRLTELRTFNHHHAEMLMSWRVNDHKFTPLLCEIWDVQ

[5] = oral, listed as obeticholic acid
[6] = exponent on t10, model estimate
[7] = normal hepatic function, model estimate

- solubility ([1]; pH 4.1, aqueous buffer, pH 4.1 Acetate): 3 µg/mL (≈ 7.13 µM)
- solubility ([1]; pH 5.1, aqueous buffer, pH 5.1 Acetate): 23 µg/mL (≈ 54.7 µM)
- solubility ([1]; pH 6, aqueous buffer, pH 6.0 Phosphate): 50 µg/mL (≈ 119 µM)
- solubility ([1]; pH 6.8, aqueous buffer, above pH 6.8): > 10 µg/mL
- solubility ([1]; pH 6.8, aqueous buffer, pH 6.8 Phosphate (50 mM sodium phosphate dibasic)): 220 µg/mL (≈ 523 µM)
- solubility ([1]; pH 7, aqueous buffer, pH 7.0 Phosphate): 462 µg/mL (≈ 1100 µM)
- solubility ([1]; pH 8, aqueous buffer, pH 8.0 Phosphate): 486 µg/mL (≈ 1160 µM)
- solubility ([1]; pH 9, aqueous buffer, pH 9.0 Alkaline Borate): 462 µg/mL (≈ 1100 µM)
- solubility ([1]; pH 10, aqueous buffer, pH 10.0 Alkaline Borate): 56 µg/mL (≈ 133 µM)
- USP Solubility Rating ([1]; pH 1.2 Hydrochloric acid): Practically
- USP Solubility Rating ([1]; pH 2.0 Hydrochloric acid): Practically
- USP Solubility Rating ([1]; pH 3.0 Acid Phthalate): Practically
- USP Solubility Rating ([1]; pH 4.1 Acetate): Slightly soluble
- USP Solubility Rating ([1]; pH 5.1 Acetate): Sparingly soluble
- USP Solubility Rating ([1]; pH 6.0 Phosphate): Soluble
- USP Solubility Rating ([1]; pH 6.8 Phosphate): Freely soluble
- USP Solubility Rating ([1]; pH 7.0 Phosphate): Freely soluble
- USP Solubility Rating ([1]; pH 8.0 Phosphate): Freely soluble
- USP Solubility Rating ([1]; pH 9.0 Alkaline Borate): Freely soluble
- USP Solubility Rating ([1]; pH 10.0 Alkaline Borate): Soluble
- increase in obeticholic acid exposure ([2]; 20 mg omeprazole once daily with obeticholic acid 10 mg once daily): less than 1.2 fold
- systemic exposure versus dose ([2]; 5, 10, and 25 mg once daily for 14 days): increase dose proportionally
- Vd ([2]; human, in vivo, read-out: volume of distribution): 613 L
- Tmax ([2]; human, plasma, multiple oral doses of OCA 10 mg once daily, read-out: median time (Tmax) of peak plasma concentrations): ~1.5 h
- half-life ([2]; human, plasma, oral, read-out: effective half-life (converted)): ~24 h
- Tmax ([2]; human, plasma, oral, read-out: median time (tmax) of peak plasma concentrations): ~2 h
- Urinary excretion ([2]; oral): Less than 3%
- dose excreted in feces ([2]; oral): about 87%
- Urinary excretion [2, 5]: less than 3%
- dose excreted in feces [2, 5]: greater than 85%
- Effect in Mild hepatic impairment in hepatic uptake of OCA and conjugates [3, 6]: −0.132
- Effect in Moderate hepatic impairment in hepatic uptake of OCA and conjugates [3, 6]: −1.86
- Effect in Severe hepatic impairment in hepatic uptake of OCA and conjugates [3, 6]: −2.37
- Effect of Mild hepatic impairment on OCA tauro-conjugation ([3]; exponent, model estimate): 0.00481
- Effect of Moderate hepatic impairment on OCA tauro-conjugation ([3]; exponent, model estimate): 1.05
- Effect of Severe hepatic impairment on OCA tauro-conjugation ([3]; exponent, model estimate): 1.56
- Ka: OCA first order rate constant of oral absorption [3, 7]: 5.32 h⁻¹
- b16: OCA rate of conjugation with glycine [3, 7]: 1.44 h⁻¹
- b18: OCA rate of conjugation with taurine [3, 7]: 0.312 h⁻¹
- kout: Rate of fecal elimination of OCA [3, 7]: 0.612 L/h
- t10: OCA transport rate from liver to sinusoidal space [3, 7]: 1698 h⁻¹
- t34: OCA rate of absorption from gut to portal space [3, 7]: 0.857 h⁻¹
Structure (SMILES): CC[C@H]1[C@@H](O)[C@@H]2[C@H](CC[C@]3(C)[C@@H]([C@H](C)CCC(=O)O)CC[C@@H]23)[C@@]2(C)CC[C@@H](O)C[C@@H]12 [OCA, 3α,7α-dihydroxy-6α-ethyl-5β-cholan-24-oic acid]
- effect of food on PK ([2]; 10 mg OCA): does not have a clinically relevant effect
- potency compared to CDCA [4]: approximately 100 fold
